“And” between values parts separate entries of the source, which are not always exact repeats. Equal entries are not always repeated. Where two headings read alike, the source gives them in different places.
Legend:
[1] = tested on: CD19+CD11b+ and CD19+CD11b− cardiac lymphocytes; test: Transcriptional profiling (RNAseq, KEGG) of sorted cardiac B lymphocytes; format: in vivo, mouse; conditions: DTR+PFD hearts vs naïve
Excerpt: To gain insight into the mechanism(s) responsible for the immunomodulatory effects of Pirfenidone, we performed transcriptional profiling on CD19+CD11b+ and CD19+CD11b− cardiac lymphocytes that were FACS sorted from naïve, DT-injured mice fed normal chow, and DT-injured mice treated with Pirfenidone chow. […]
We performed transcriptional profiling of cardiac lymphocytes that were isolated from naïve and DTR injured hearts in the presence and absence of Pirfenidone. […] Single-end, 50 bp reads were obtained on an Illumina HiSeq 3000 and aligned to the IIlumina iGenomes GRCm38_Ensembl release of the mouse transcriptome using Tophat2.1(41), yielding an average of 1.8×107 aligned reads per sample. Gene-level quantitation was performed using HTSeq 2(42). mRNAs were included in downstream analyses if present in all biological replicates in any of the 6 experimental groups (CD19+CD11b+ and CD19+CD11b− from WT, DT and DT+PFD) at an abundance of at least 1 read per million. […] KEGG pathways within the following 3 categories were analyzed: signal transduction (3.2), signaling molecules and interactions (3.3), and immune system (5.1).

[2] = Plasma pharmacokinetics after IV or PO administration; format: in vivo, SD Rat; conditions: SD Rat
Procedure: Pirfenidone and Pegyonde-6 were administered at equimolar concentrations to rats IV or per os (PO) and serum concentrations measured at different time points to measure pharmacokinetic parameters. The drugs were solubilized in 5% Alcohol+20% PEG 300 in saline.

[3] = IV 40 mg/kg, individual rats 1-3, 40 mg/kg
[4] = PO 40 mg/kg, individual rats 7-9, 40 mg/kg

AUMC0-t, Mean ([2]; IV 40 mg/kg): 11482 h*h*ng/mL
AUMC0-∞, Mean ([2]; IV 40 mg/kg): 11490 h*h*ng/mL
CL(/F), Mean ([2]; IV 40 mg/kg): 28.87 mL/min/kg
Vss (/F), Mean ([2]; IV 40 mg/kg): 0.828 L/kg
Plasma concentrations of Pirfenidone ([2]; IV 40 mg/kg, 0.083 h, individual rats 1-3, 40 mg/kg): 34700 ng/mL and 33600 ng/mL
Plasma concentrations of Pirfenidone ([2]; IV 40 mg/kg, 0.25 h, individual rats 1-3, 40 mg/kg): 29300 ng/mL and 25600 ng/mL
Plasma concentrations of Pirfenidone ([2]; IV 40 mg/kg, 0.5 h, individual rats 1-3, 40 mg/kg): 19800 ng/mL and 16100 ng/mL
Plasma concentrations of Pirfenidone ([2]; IV 40 mg/kg, 1 h, individual rats 1-3, 40 mg/kg): 6130 ng/mL and 9860 ng/mL and 4840 ng/mL
Plasma concentrations of Pirfenidone ([2]; IV 40 mg/kg, 2 h, individual rats 1-3, 40 mg/kg): 394 ng/mL and 712 ng/mL and 225 ng/mL
Plasma concentrations of Pirfenidone ([2]; IV 40 mg/kg, 4 h, individual rats 1-3, 40 mg/kg): 6.12 ng/mL and 3.57 ng/mL
AUC0-t [2, 3]: 27907 ng·h/mL and 21142 ng·h/mL
AUC0-∞ [2, 3]: 27910 ng·h/mL and 21144 ng·h/mL
Cmax [2, 3]: 34700 ng/mL and 33600 ng/mL
MRTINF [2, 3]: 32.6 min and 25.6 min
T1/2 [2, 3]: 17 min and 17.3 min
Vss (/F) [2, 3]: 0.898 L/kg and 0.779 L/kg and 0.808 L/kg
AUMC0-∞, Mean ([2]; PO 40 mg/kg): 15669 h*h*ng/mL
Plasma concentrations of Pirfenidone ([2]; PO 40 mg/kg, 0.25 h, individual rats 7-9, 40 mg/kg): 8330 ng/mL and 9540 ng/mL
Plasma concentrations of Pirfenidone ([2]; PO 40 mg/kg, 0.5 h, individual rats 7-9, 40 mg/kg): 6700 ng/mL and 8820 ng/mL
Plasma concentrations of Pirfenidone ([2]; PO 40 mg/kg, 1 h, individual rats 7-9, 40 mg/kg): 3540 ng/mL and 3570 ng/mL
Plasma concentrations of Pirfenidone ([2]; PO 40 mg/kg, 2 h, individual rats 7-9, 40 mg/kg): 2000 ng/mL and 2140 ng/mL
Plasma concentrations of Pirfenidone ([2]; PO 40 mg/kg, 4 h, individual rats 7-9, 40 mg/kg): 7.72 ng/mL and 830 ng/mL and 126 ng/mL
AUC0-t [2, 4]: 12787 ng·h/mL and 12172 ng·h/mL
AUC0-∞ [2, 4]: 12820 ng·h/mL and 12353 ng·h/mL
Cmax [2, 4]: 8330 ng/mL and 9540 ng/mL
MRTINF [2, 4]: 98.64 min and 79.32 min
T1/2 [2, 4]: 18.8 min and 57.5 min and 70.38 min
Tmax ([2]; Sprague-Dawley, plasma, IV 40 mg/kg, read-out: Tmax, Mean): 4.98 min
concentration at 0.083 h ([2]; Sprague-Dawley, rat, plasma, iv, 40 mg/kg, IV 40 mg/kg, 0.083 h, individual rats 1-3, read-out: Plasma concentrations of Pirfenidone): 32900 ng/mL
concentration at 0.083 h ([2]; Sprague-Dawley, rat, plasma, iv, 40 mg/kg, IV 40 mg/kg, 0.083 h, read-out: Plasma concentrations of Pirfenidone, Mean): 33700 ng/mL
concentration at 0.25 h ([2]; Sprague-Dawley, rat, plasma, iv, 40 mg/kg, IV 40 mg/kg, 0.25 h, individual rats 1-3, read-out: Plasma concentrations of Pirfenidone): 21400 ng/mL
concentration at 0.25 h ([2]; Sprague-Dawley, rat, plasma, iv, 40 mg/kg, IV 40 mg/kg, 0.25 h, read-out: Plasma concentrations of Pirfenidone, Mean): 25400 ng/mL
concentration at 0.5 h ([2]; Sprague-Dawley, rat, plasma, iv, 40 mg/kg, IV 40 mg/kg, 0.5 h, individual rats 1-3, read-out: Plasma concentrations of Pirfenidone): 15800 ng/mL
concentration at 0.5 h ([2]; Sprague-Dawley, rat, plasma, iv, 40 mg/kg, IV 40 mg/kg, 0.5 h, read-out: Plasma concentrations of Pirfenidone, Mean): 17200 ng/mL
concentration at 1 h ([2]; Sprague-Dawley, rat, plasma, iv, 40 mg/kg, IV 40 mg/kg, 1 h, read-out: Plasma concentrations of Pirfenidone, Mean): 6940 ng/mL
concentration at 2 h ([2]; Sprague-Dawley, rat, plasma, iv, 40 mg/kg, IV 40 mg/kg, 2 h, read-out: Plasma concentrations of Pirfenidone, Mean): 444 ng/mL
concentration at 4 h ([2]; Sprague-Dawley, rat, plasma, iv, 40 mg/kg, IV 40 mg/kg, 4 h, individual rats 1-3, read-out: Plasma concentrations of Pirfenidone): 4.27 ng/mL
concentration at 4 h ([2]; Sprague-Dawley, rat, plasma, iv, 40 mg/kg, IV 40 mg/kg, 4 h, read-out: Plasma concentrations of Pirfenidone, Mean): 4.7 ng/mL
concentration at 8 h ([2]; Sprague-Dawley, rat, plasma, iv, 40 mg/kg, IV 40 mg/kg, 8 h, individual rats 1-3, read-out: Plasma concentrations of Pirfenidone): 1.22 ng/mL
concentration at 8 h ([2]; Sprague-Dawley, rat, plasma, iv, 40 mg/kg, IV 40 mg/kg, 8 h, read-out: Plasma concentrations of Pirfenidone, Mean): 1.22 ng/mL
AUC0-t ([2]; Sprague-Dawley, rat, plasma, iv, 40 mg/kg, IV 40 mg/kg, read-out: AUC0-t, Mean): 23500 ng·h/mL
AUC(0-inf) ([2]; Sprague-Dawley, rat, plasma, iv, 40 mg/kg, IV 40 mg/kg, read-out: AUC0-∞, Mean): 23500 ng·h/mL
Cmax ([2]; Sprague-Dawley, rat, plasma, iv, 40 mg/kg, IV 40 mg/kg, read-out: Cmax, Mean): 33700 ng/mL
MRT inf ([2]; Sprague-Dawley, rat, plasma, iv, 40 mg/kg, IV 40 mg/kg, read-out: MRTINF, Mean): 29 min
half-life ([2]; Sprague-Dawley, rat, plasma, iv, 40 mg/kg, IV 40 mg/kg, read-out: T1/2, Mean (converted)): 21.4 min
concentration at 0.25 h ([2]; Sprague-Dawley, rat, plasma, po, 40 mg/kg, PO 40 mg/kg, 0.25 h, individual rats 7-9, read-out: Plasma concentrations of Pirfenidone): 9130 ng/mL
concentration at 0.25 h ([2]; Sprague-Dawley, rat, plasma, po, 40 mg/kg, PO 40 mg/kg, 0.25 h, read-out: Plasma concentrations of Pirfenidone, Mean): 9000 ng/mL
concentration at 0.5 h ([2]; Sprague-Dawley, rat, plasma, po, 40 mg/kg, PO 40 mg/kg, 0.5 h, individual rats 7-9, read-out: Plasma concentrations of Pirfenidone): 8450 ng/mL
concentration at 0.5 h ([2]; Sprague-Dawley, rat, plasma, po, 40 mg/kg, PO 40 mg/kg, 0.5 h, read-out: Plasma concentrations of Pirfenidone, Mean): 7990 ng/mL
concentration at 1 h ([2]; Sprague-Dawley, rat, plasma, po, 40 mg/kg, PO 40 mg/kg, 1 h, individual rats 7-9, read-out: Plasma concentrations of Pirfenidone): 5110 ng/mL
concentration at 1 h ([2]; Sprague-Dawley, rat, plasma, po, 40 mg/kg, PO 40 mg/kg, 1 h, read-out: Plasma concentrations of Pirfenidone, Mean): 4070 ng/mL
concentration at 2 h ([2]; Sprague-Dawley, rat, plasma, po, 40 mg/kg, PO 40 mg/kg, 2 h, individual rats 7-9, read-out: Plasma concentrations of Pirfenidone): 1190 ng/mL
concentration at 2 h ([2]; Sprague-Dawley, rat, plasma, po, 40 mg/kg, PO 40 mg/kg, 2 h, read-out: Plasma concentrations of Pirfenidone, Mean): 1780 ng/mL
concentration at 4 h ([2]; Sprague-Dawley, rat, plasma, po, 40 mg/kg, PO 40 mg/kg, 4 h, read-out: Plasma concentrations of Pirfenidone, Mean): 321 ng/mL
concentration at 8 h ([2]; Sprague-Dawley, rat, plasma, po, 40 mg/kg, PO 40 mg/kg, 8 h, read-out: Plasma concentrations of Pirfenidone, Mean): 65.3 ng/mL
Cmax ([2]; Sprague-Dawley, rat, plasma, po, 40 mg/kg, PO 40 mg/kg, individual rats 7-9, read-out: Cmax): 9130 ng/mL
MRT inf ([2]; Sprague-Dawley, rat, plasma, po, 40 mg/kg, PO 40 mg/kg, individual rats 7-9, read-out: MRTINF): 52 min
AUC0-t ([2]; Sprague-Dawley, rat, serum, iv, 40 mg/kg, IV 40 mg/kg, individual rats 1-3, read-out: AUC0-t): 21400 ng·h/mL
AUC(0-inf) ([2]; Sprague-Dawley, rat, serum, iv, 40 mg/kg, IV 40 mg/kg, individual rats 1-3, read-out: AUC0-∞): 21400 ng·h/mL
Cmax ([2]; Sprague-Dawley, rat, serum, iv, 40 mg/kg, IV 40 mg/kg, individual rats 1-3, read-out: Cmax): 32900 ng/mL
MRT inf ([2]; Sprague-Dawley, rat, serum, iv, 40 mg/kg, IV 40 mg/kg, individual rats 1-3, read-out: MRTINF): 28.8 min
half-life ([2]; Sprague-Dawley, rat, serum, iv, 40 mg/kg, IV 40 mg/kg, individual rats 1-3, read-out: T1/2 (converted)): 30 min
AUC0-t ([2]; Sprague-Dawley, rat, serum, po, 40 mg/kg, PO 40 mg/kg, individual rats 7-9, read-out: AUC0-t): 11100 ng·h/mL
AUC(0-inf) ([2]; Sprague-Dawley, rat, serum, po, 40 mg/kg, PO 40 mg/kg, individual rats 7-9, read-out: AUC0-∞): 11100 ng·h/mL
AUC0-t ([2]; Sprague-Dawley, rat, serum, po, 40 mg/kg, PO 40 mg/kg, read-out: AUC0-t, Mean): 12000 ng·h/mL
AUC(0-inf) ([2]; Sprague-Dawley, rat, serum, po, 40 mg/kg, PO 40 mg/kg, read-out: AUC0-∞, Mean): 12100 ng·h/mL
Cmax ([2]; Sprague-Dawley, rat, serum, po, 40 mg/kg, PO 40 mg/kg, read-out: Cmax, Mean): 9000 ng/mL
MRT inf ([2]; Sprague-Dawley, rat, serum, po, 40 mg/kg, PO 40 mg/kg, read-out: MRTINF, Mean): 76.8 min
half-life ([2]; Sprague-Dawley, rat, serum, po, 40 mg/kg, PO 40 mg/kg, read-out: T1/2, Mean (converted)): 48.9 min
Tmax ([2]; Sprague-Dawley, serum, IV 40 mg/kg, individual rats 1-3, read-out: Tmax): 4.98 min
bioavailability ([2]; Sprague-Dawley, serum, PO 40 mg/kg vs IV 40 mg/kg): 22.6%
Tmax ([2]; Sprague-Dawley, serum, PO 40 mg/kg, read-out: Tmax, Mean): 15 min
Compound: Cc1ccc(=O)n(-c2ccccc2)c1 [Pirfenidone, 5 methyl-1-phenyl-2-[H] pyridone]
KEGG pathways enriched after DT injury in CD19+CD11b+ lymphocytes ([1]; 6 pathways): not activated
KEGG pathways enriched after DT injury in CD19+CD11b− lymphocytes ([1]; with the exception of the hematopoietic cell lineage pathway): none of these pathways was significantly enriched
Plasma concentrations of Pirfenidone ([2]; IV 40 mg/kg, 8 h, individual rats 1-3, 40 mg/kg): BLOQ (Below lower limit of quantification (1 ng/mL))
Plasma concentrations of Pirfenidone ([2]; IV 40 mg/kg, 24 h, individual rats 1-3): BLOQ (Below lower limit of quantification (1 ng/mL))
AUMC0-t [2, 3]: 10270 h*h*ng/mL and 15155 h*h*ng/mL and 9021 h*h*ng/mL
AUMC0-∞ [2, 3]: 10277.2 h*h*ng/mL and 15166.3 h*h*ng/mL and 9027.6 h*h*ng/mL
CL(/F) [2, 3]: 31.17 mL/min/kg and 23.88 mL/min/kg and 31.53 mL/min/kg
Plasma concentrations of Pirfenidone ([2]; PO 40 mg/kg, 24 h, individual rats 7-9): BLOQ (Below lower limit of quantification (1 ng/mL))
AUMC0-t [2, 4]: 9588 h*h*ng/mL and 20769 h*h*ng/mL and 14572 h*h*ng/mL
AUMC0-∞ [2, 4]: 9604 h*h*ng/mL and 21076 h*h*ng/mL and 16326 h*h*ng/mL

Reference: patent publication US12365651B2, “Use of pirfenidone and derivatives for modulation of B lymphocyte activity and organ protection from acute tissue damage” (Washington University, priority 2017, dated 2025)
